This is an account of results in a melting point compilation (Tetko et al.; mined from patent text by program, amines drawn as free bases though some values may be those of a salt).

SMILES strings stand for the structures.

Take `CCCCCCCCCCCCCCCCCCOc1cc(N(CC(=O)OC)CC(=O)OC)cc(S(C)=O)c1` (stereo not drawn): the melting point – broadly, the temperature of the solid-liquid transition – was in the range of 80 to 82 °C.

For `CC(=O)Oc1ccc(-c2cnc(NC(=S)Cc3ccccc3)c(Cc3ccccc3)n2)cc1`, the melting point was in the range of 143 to 145 °C.

`COc1c(-c2ccc3cc(NS(C)(=O)=O)ccc3c2)cc(NC(N)=O)cc1C(C)(C)C`: the melting point is more than 300 °C. To `C=CCN1C(=O)c2cccc3c(OCCO)ccc(c23)C1=O` belongs 144 to 145 °C; to `CCN1CNS(=O)(=O)c2cc(Oc3cccc(C(C)O)c3)ccc21` (stereo not drawn), 60 °C; to `COC(=O)CCCc1c(-c2ccc(F)cc2)[nH]c2ccc(-c3ccc([N+](=O)[O-])cc3)cc12`, 190 to 191 °C. In the case of `O=C(C1CN(S(=O)(=O)c2ccc3cc(Br)ccc3c2)CCN1C(=O)C1CCN(c2ccncc2)CC1)N1CCOCC1` (stereo not drawn) it was 235 to 237 °C; in that of `CCOc1cc(-c2cc(C(F)(F)F)n3ncc(C(=O)Nc4cccc(S(=O)(=O)N5CCOCC5)c4)c3n2)ccc1C(F)(F)F`, 235 °C.

`Cc1cc(=O)n2cccc(OCc3ccccc3)c2n1` returned a melting point of 110 to 112 °C.

`COc1ccc(I)c2c1CC(NC(C)=O)CC2` (stereo not drawn) came in with a melting point of 190 °C.

As for `O=C1CCC(N2C(=O)c3cccc(NC(=O)c4cccc(Cl)c4)c3C2=O)C(=O)N1` (stereo not drawn), the melting point fell in the range of 257 to 259 °C. In turn, `NC(=O)c1cc(C(=O)c2ccccc2)ccc1N` yielded a melting point of 225 °C.

In turn, `C=CC[C@@H](C(=O)N[C@H](C(=O)N[C@H](C)c1ccccc1)C(C)(C)C)[C@H](OCC)C(=O)OC` registered a melting point of 131 to 134 °C. To `Cc1noc(C)c1Cn1cc(N2C(=O)CN(CCc3ccccc3)C2=O)cn1` belongs 95 to 96 °C; to `Cc1cn(C2CC3OCC3O2)c(=O)[nH]c1=O` (stereo not drawn), 188 to 190 °C; to `N#Cc1ccc(S)c(C#N)c1`, 180 °C. To `CCCCc1nc2ccccc2n1Cc1ccc(C(=O)O)c(C)c1` belongs 191 to 192 °C; to `Cc1cnn(-c2ncc(C(=O)N3Cc4cccn4Cc4ccccc43)c(C(F)(F)F)n2)c1`, 214 to 217 °C.

Consider `Clc1ccc(-n2cc(Br)cn2)cc1`, for which the melting point lay in the range of 75 to 76 °C.

The compound `CC1=CC(O)C(OC(=O)c2cccc(N)c2)C(C)(C)CC1=O` (stereo not drawn) registered a melting point of 121 to 123 °C. `CCCCCCCCCCCc1[nH]c2cc(C(=O)OC)ccc2c1C=O` had a melting point of 147 to 149 °C.

`Oc1ccc2c(CCC3CCN(Cc4ccccc4)CC3)noc2c1`: the melting point fell in the range of 148 to 149 °C.

The compound `Cc1ccc(-c2cc(OCC3CO3)c3ccccc3n2)cc1` (racemic) had a melting point of 100 to 102 °C. To `Cc1onc(-c2ccc(Cl)cc2)c1CCC(=O)O` belongs 187 to 188 °C; to `CCCc1[nH]c2cc(C(=O)O)ccc2c1C(=O)COC`, more than 250 °C. In the case of `Cc1c(O)cc(O)c(C)c1C(=O)OCc1ccc([N+](=O)[O-])cc1` it was 164 to 166 °C.

As for `COn1c(=O)c2ccccc2n(-c2c(Cl)ccc(C)c2Cl)c1=O`, the melting point is 211 to 213 °C. In the case of `COc1ccc(S(=O)(=O)[C@H](CCCCc2ccccc2)[C@H](C(=O)O)C(C)C)cc1OC` (relative stereo) it was 173 to 174 °C; in that of `CN(C(=O)OCc1ccccc1)[C@@H](CCC(=O)O)C(=O)O`, 97 to 98 °C. Compound `CNS(=O)(=O)c1ccc(C2=C(c3cccc(F)c3)C(=O)C(C)(C)O2)cc1` showed a melting point of 176 to 177 °C. The compound `C/C(=C\c1ccc(OCC(=O)O)cc1)[N+](=O)[O-]` showed a melting point of 149 to 151 °C.

Take `Cc1cc(C(C)(C)C)c(O)c(C)c1CSP(=S)(C1CCCCC1)C1CCCCC1`: the melting point lay within 113 to 116 °C. `O=C(CO)Nc1nc(-c2ccc(Br)cc2)cs1` had a melting point of 222 to 224 °C. In the case of `COc1cc(C)c2ccc(N)nc2n1` it was 233 to 236 °C; in that of `COC(=S)NCc1cn(-c2ccc(N3CCC(=O)CC3)c(F)c2)nn1`, 145 to 147 °C; in that of `Cc1oc(-c2ccco2)nc1COc1cccc(COc2nn(Cc3ccccc3)cc2C=O)c1`, 135 to 136 °C. To `O=C(Nc1nc(-c2ccco2)c(C(=O)C2CCCC2)s1)c1ccncc1` belongs 168 to 181 °C. Compound `CC1(O[Si](C)(C)C(C)(C)C)CN(c2ccc([N+](=O)[O-])cc2F)C1` displayed a melting point of 98 to 99.5 °C. In the case of `CCn1cc(C(=O)NCc2ccc(Cl)cc2)c(=O)c2cc(CN3CCOCC3)sc21` it was 194 to 196 °C. In the case of `COc1cc(O)c(C(=O)c2ccccc2)c(Cl)c1` it was 92 to 94 °C; in that of `Cc1c(/C=N/OCCCOc2ccc(CC(=O)O)cc2)c2ccccc2n1C`, 106 to 108 °C. In the case of `O=S1(=O)c2cccc3cccc(c23)N1CCCN1CCN(c2ccccn2)CC1` it was 101 °C. For `COc1ccc2c(c1)[nH]c1c(C)c(OS(=O)(=O)c3cccc4c(N(C)C)cccc34)ccc12`, the melting point worked out at 174 °C. Take `CCOC(=O)C1=C(C(OCC)OCC)NC(C)=C(C(=O)OCCO)C1c1cccc([N+](=O)[O-])c1` (stereo not drawn): the melting point was 98 to 100 °C. To `COC1(c2cc(F)cc(Sc3ccc(C(CO)=NO)cc3)c2)CCOCC1` belongs 145 to 146 °C. In the case of `CC(=O)SC(CC(=O)c1ccc(Oc2ccccc2)cc1)C(=O)O` (stereo not drawn) it was 106 °C.

For the compound `NNC(=O)c1cc(Cl)c(O)cc1O`, the melting point was found to be 260 °C. In the case of `COc1ccc(-c2cc(CO)c(=O)n(CC=Cc3ccc(Cl)cc3)n2)cc1F` it was 158 to 160 °C; in that of `CCOC(=O)c1ncn2c1[C@@H]1CCN1C(=O)c1sccc1-2`, 188 to 191 °C; in that of `O=C(O)COCCCCC1CCCN1c1cnc(-c2ccccc2)c(-c2ccccc2)n1` (stereo not drawn), 138 to 140 °C.

`O=C(NNC(=O)c1occ(-c2ccccc2)c1-c1ccccc1)c1ccc(O)c([N+](=O)[O-])c1`: the melting point was in the range of 214 to 217 °C. For the compound `COC(=O)CCc1cc(C)on1`, the melting point was in the range of 54 to 55 °C. As for `CCCOc1ccccc1-c1nc2cc3ncn(CC(C)C4CCCCC4)c3cc2c(=O)[nH]1` (stereo not drawn), the melting point lay within 178 to 180 °C.

The compound `CC(=O)n1cc(C#N)c(-c2cccc(Cl)c2Cl)c1` had a melting point of 136 to 137 °C.

`COc1ccc(Cn2ccnc2)cc1` registered a melting point of 157 to 159 °C. To `OC1CSC(Oc2ccc(-c3cnccc3F)nc2-c2cnccc2F)C(O)C1O` (stereo not drawn) belongs 209 °C. In the case of `CC(=O)Nc1ccccc1Sc1ccc([N+](=O)[O-])cc1[N+](=O)[O-]` it was 183 to 184 °C; in that of `CS(=O)(=O)C(=C1CN(C(c2ccccc2)c2ccccc2)C1)c1cccc(Br)c1`, 200 °C; in that of `CCCCOC(=O)NCCC(=O)O`, 50.5 °C.

Consider `O=C(O)Cc1cccc(CCNC(=O)C2Cc3ccccc3N2S(=O)(=O)c2ccc(-c3cccc(C(F)(F)F)c3)cc2)c1` (stereo not drawn), for which the melting point came to 90 °C. In the case of `OC[C@H]1C[C@@H](n2cnc3cc(Cl)c(Cl)cc32)[C@H](O)[C@@H]1O` it was 222 to 225 °C; in that of `Cn1c2ccccc2c2sc3c(C=O)cccc3c21`, 128 to 130 °C. `ClCc1cccc2cc(-c3ccccc3)oc12` displayed a melting point of 72 to 73 °C. To `CCCCCCCCCCCC/C(=C\C=C\C(=O)O)c1ccc(OC)cc1` belongs 85 to 88 °C; to `CC(C)(C)OC(=O)Nc1ccc(-c2ccccc2F)cc1NC(=O)CC(=O)c1csc(-n2ccnc2)n1`, 115 to 130 °C; to `CCOC(=O)C(=O)Nc1cc(Cl)cc(NC(=O)C(=O)OCC)n1`, 164 to 166 °C. To `CC(Br)C(=O)c1ccc2oc(=O)[nH]c2c1` (stereo not drawn) belongs 191 to 193 °C; to `CC(C)(Cn1c(CCO)nc2c(N)nc3ccccc3c21)NS(C)(=O)=O`, 209 to 212 °C. To `O=c1[nH]c(S)ncc1OC1CCCCO1` (stereo not drawn) belongs more than 300 °C. Compound `c1ccc(-c2c3ccccc3nc3ccccc23)nc1` registered a melting point of 192 to 205 °C. The compound `O=C(c1ccccc1)c1c(F)ccc([N+](=O)[O-])c1F` showed a melting point of 75.8 to 77.2 °C. In the case of `CC1(C)CCc2ccccc2C1c1cncnc1SCF` (stereo not drawn) it was 126 to 128 °C. To `COc1cccc(C2Cc3ccccc3C2=O)c1` (stereo not drawn) belongs 144 to 146 °C. In the case of `CS(=O)(=O)c1ccc(C(=O)O)c(C(F)(F)F)c1F` it was 250 to 252 °C; in that of `CCCCCNS(=O)(=O)NC(=O)/C(C)=C/c1ccc(OC(C)C)cc1Oc1ncc(C(F)(F)F)cc1Cl`, 138 °C; in that of `CC(Oc1ccc(F)cc1F)c1ccnc2ncnn12` (stereo not drawn), 96 to 97 °C. In turn, `C=C1CC2(C)CC(=O)C(C)(C)C12` (stereo not drawn) displayed a melting point of -23 to -20 °C.

`Cc1c(Sc2ccc(Cl)cc2)nn(-c2ccc(S(C)(=O)=O)cc2)c(=O)c1C#N` came in with a melting point of 199 to 201 °C. To `Cc1c(C(F)(F)F)nc2c(C(F)(F)F)cccc2c1Br` belongs 81.9 to 82.3 °C; to `Cc1cc(Oc2cccc(C(F)(F)F)c2)c(C)cc1N=CNC#N`, 138 to 140 °C. As to `COc1ccc2c(c1)CCC1C3CC4OCCOC4C3(C)CC(=O)C21C` (stereo not drawn), the melting point was 142 to 145 °C. To `Cc1ccc(CNC(=O)c2ccc3n2Cc2ccccc2N(C(=O)c2ccc(-c4ccccc4C)c(C)c2)C3)c(C)c1` belongs 159 to 161 °C; to `CCOC1(C)OCC(O)O1` (stereo not drawn), 86 to 87 °C. To `COc1c(N2CC(C)(N)C3(CC3)C2)c(F)cc2c(=O)c(C(=O)O)cn([C@@H]3C[C@@H]3F)c12` (stereo partly drawn) belongs 195 to 200 °C; to `CCOC(=O)N1CCN(c2ccc(N3CC(CNC(C)=O)OC3=O)cc2F)CC1` (stereo not drawn), 224 to 226 °C; to `COc1ccc(C(=O)c2noc(CC#N)n2)cc1`, 92 to 94 °C. To `O=C1c2ccccc2C(=O)N1CC(=O)N1c2ccccc2N(Cc2ccc(O)cc2)C(=O)[C@H]2CCC[C@H]21` (relative stereo) belongs 264 to 267 °C; to `Cc1cn2cccc(OCc3c(Cl)ccc(S(=O)(=O)N4CCC[C@H]4C(=O)NCCCNC(=O)c4ccc(C#N)cc4)c3Cl)c2n1`, 100 to 102 °C.
